According to patent US5643912A, “Pyrazinoic acid esters as anti-mycobacterium avium agents” (The Research Foundation of State University of NY, priority 1996, dated 1997):
In brackets after ≈: the same amount, converted by molar mass. Like-named read-outs stand apart in the source and are kept apart here.

Assays:
Type in all cases: cell-based
M. avium 101 = assay: Broth dilution MIC vs M. avium 101; conditions: Mycobacterium avium, 7H10 broth, pH 5.8
M. kansasii SWK = assay: Broth dilution MIC vs M. kansasii SWK; conditions: Mycobacterium kansasii, 7H10 broth, pH 5.8
M. tuberculosis 102 = assay: Broth dilution MIC vs M. tuberculosis 102
M. avium LPR = assay: Broth dilution MIC vs M. avium LPR; conditions: Mycobacterium avium, M. avium LPR (footnote a), 7H10 broth, pH 5.8
[1] = Mycobacterium tuberculosis, 102, pH 5.8, M. tuberculosis 102, 7H10 broth, read-out: MIC

Work on `CCCCCCCCCCOC(=O)c1cnccn1` [Example 1] yielded an MIC (M. avium 101) of 32 µg/mL (≈ 121 µM), an MIC (M. kansasii SWK) of 0.25 µg/mL (≈ 0.946 µM) and an MIC (M. tuberculosis 102; [1]) of 0.5 µg/mL (≈ 1.89 µM).

`CCCCCCCCCCCCCCCOC(=O)c1cnccn1` [Example 2] was tested, and the MIC (M. avium LPR) was 8 µg/mL (≈ 23.9 µM), the MIC (M. kansasii SWK) was 1 µg/mL (≈ 2.99 µM) and the MIC (M. tuberculosis 102; [1]) was 0.06 µg/mL (≈ 0.179 µM).

`O=C(Oc1ccc(F)cc1)c1cnccn1` [Example 3] was tested, and the MIC (M. avium 101) was 128 µg/mL (≈ 587 µM), the MIC (M. kansasii SWK) was 64 µg/mL (≈ 293 µM) and the MIC (M. tuberculosis 102; [1]) was 32 µg/mL (≈ 147 µM).

Work on `O=C(Oc1c(Br)cc(Br)cc1Br)c1cnccn1` [Example 4] yielded an MIC (M. avium 101) of 128 µg/mL (≈ 293 µM), an MIC (M. kansasii SWK) of 64 µg/mL (≈ 146 µM) and an MIC (M. tuberculosis 102; [1]) of 32 µg/mL (≈ 73.2 µM).

In the case of `COC(=O)c1cnc(Cl)cn1` [Example 5], the MIC (M. avium LPR) is reported as 64 µg/mL (≈ 371 µM), the MIC (M. kansasii SWK) is reported as 2 µg/mL (≈ 11.6 µM) and the MIC (M. tuberculosis 102; [1]) is reported as 4 µg/mL (≈ 23.2 µM).

For `CCCCCCCCCCOC(=O)c1cnc(Cl)cn1` [Example 6], the MIC (M. avium 101) was 32 µg/mL (≈ 107 µM), the MIC (M. kansasii SWK) was 0.5 µg/mL (≈ 1.67 µM) and the MIC (M. tuberculosis 102; [1]) was 0.5 µg/mL (≈ 1.67 µM).

Molecule `CCCCCCCCCCCCCCCOC(=O)c1cnc(Cl)cn1` [Example 7] has an MIC (M. avium 101) of over 16 µg/mL, an MIC (M. kansasii SWK) of 0.25 µg/mL (≈ 0.678 µM) and an MIC (M. tuberculosis 102; [1]) of 0.13 µg/mL (≈ 0.352 µM).

For `CCCCCCC(C)OC(=O)c1cnc(Cl)cn1` (stereo not drawn) [Example 8], the MIC (M. avium 101) was 32 µg/mL (≈ 118 µM), the MIC (M. kansasii SWK) was under 0.25 µg/mL and the MIC (M. tuberculosis 102; [1]) was under 0.25 µg/mL.

With `COCCOCCOC(=O)c1cnc(Cl)cn1` [Example 9] the MIC (M. avium 101) was 64 µg/mL (≈ 246 µM), the MIC (M. kansasii SWK) was 2 µg/mL (≈ 7.67 µM) and the MIC (M. tuberculosis 102; [1]) was 2 µg/mL (≈ 7.67 µM).

`CCOCCOCCOC(=O)c1cnc(Cl)cn1` [Example 10] was tested, and the MIC (M. avium 101) was 64 µg/mL (≈ 233 µM), the MIC (M. kansasii SWK) was 4 µg/mL (≈ 14.6 µM) and the MIC (M. tuberculosis 102; [1]) was 1 µg/mL (≈ 3.64 µM).

`CCCCOCCOCCOC(=O)c1cnc(Cl)cn1` [Example 11] gave an MIC (M. avium 101) of 64 µg/mL (≈ 211 µM), an MIC (M. kansasii SWK) of 2 µg/mL (≈ 6.61 µM) and an MIC (M. tuberculosis 102; [1]) of 0.5 µg/mL (≈ 1.65 µM).

For `COCCOCCOCCOC(=O)c1cnc(Cl)cn1` [Example 12], the MIC (M. avium 101) was 64 µg/mL (≈ 210 µM), the MIC (M. kansasii SWK) was 8 µg/mL (≈ 26.3 µM) and the MIC (M. tuberculosis 102; [1]) was 2 µg/mL (≈ 6.56 µM).

`CCCCCCOC(=O)c1cnc(Cl)cn1` [Example 13] was tested, and the MIC (M. avium 101) was 32 µg/mL (≈ 132 µM), the MIC (M. kansasii SWK) was under 0.03 µg/mL and the MIC (M. tuberculosis 102; [1]) was 0.13 µg/mL (≈ 0.536 µM).

For `CCCCCCCCOC(=O)c1cnc(Cl)cn1` [Example 14], the MIC (M. avium 101) was 16 µg/mL (≈ 59.1 µM), the MIC (M. kansasii SWK) was under 0.03 µg/mL and the MIC (M. tuberculosis 102; [1]) was 0.06 µg/mL (≈ 0.222 µM).

For `CCCOC(=O)c1cnc(Cl)cn1` [Example 15], the MIC (M. avium 101) was 16 µg/mL (≈ 79.8 µM), the MIC (M. kansasii SWK) was 0.25 µg/mL (≈ 1.25 µM) and the MIC (M. tuberculosis 102; [1]) was 0.06 µg/mL (≈ 0.299 µM).

`CCCCCCC(CCCCCC)OC(=O)c1cnc(Cl)cn1` [Example 16] gave an MIC (M. avium 101) of 16 µg/mL (≈ 46.9 µM), an MIC (M. kansasii SWK) of 0.5 µg/mL (≈ 1.47 µM) and an MIC (M. tuberculosis 102; [1]) of 0.25 µg/mL (≈ 0.733 µM).

Work on `CCCCCCC(C)(CCCCCC)OC(=O)c1cnc(Cl)cn1` [Example 17] yielded an MIC (M. avium LPR) of 16 µg/mL (≈ 45.1 µM), an MIC (M. kansasii SWK) of 2 µg/mL (≈ 5.64 µM) and an MIC (M. tuberculosis 102; [1]) of 0.25 µg/mL (≈ 0.704 µM).

`CCCCCCCOC(=O)c1cnc(Cl)cn1` [Example 18] was tested, and the MIC (M. avium 101) was 8 µg/mL (≈ 31.2 µM), the MIC (M. kansasii SWK) was under 0.03 µg/mL and the MIC (M. tuberculosis 102; [1]) was 0.06 µg/mL (≈ 0.234 µM).

With `CCCCCCCCC(C)OC(=O)c1cnc(Cl)cn1` (stereo not drawn) [Example 19] the MIC (M. avium 101) was 32 µg/mL (≈ 107 µM), the MIC (M. kansasii SWK) was 0.13 µg/mL (≈ 0.435 µM) and the MIC (M. tuberculosis 102; [1]) was 0.03 µg/mL (≈ 0.1 µM).

Molecule `CCCCCCCCCOC(=O)c1cnc(Cl)cn1` [Example 20] has an MIC (M. avium 101) of 32 µg/mL (≈ 112 µM), an MIC (M. kansasii SWK) of under 0.13 µg/mL and an MIC (M. tuberculosis 102; [1]) of under 0.03 µg/mL.

`CCCCCCC(C)(C)OC(=O)c1cnc(Cl)cn1` [Example 21] gave an MIC (M. avium 101) of 64 µg/mL (≈ 225 µM), an MIC (M. kansasii SWK) of 1 µg/mL (≈ 3.51 µM) and an MIC (M. tuberculosis 102; [1]) of 0.25 µg/mL (≈ 0.878 µM).

`CCCCCCC(C)(C)OC(=O)c1cnc(Cl)cn1` [Example 22] gave an MIC (M. tuberculosis 102; M. tuberculosis 102, 7H10 broth, pH 5.8) of 0.13 µg/mL (≈ 0.456 µM).

`COC(=O)c1cnc(F)cn1` [Example 23] gave an MIC (M. avium 101) of 64 µg/mL (≈ 410 µM), an MIC (M. kansasii SWK) of 8 µg/mL (≈ 51.2 µM) and an MIC (M. tuberculosis 102; [1]) of 4 µg/mL (≈ 25.6 µM).

Molecule `CCCCCC(C)OC(=O)c1cnc(Cl)cn1` (stereo not drawn) [Example 24] has an MIC (M. avium 101) of 32 µg/mL (≈ 125 µM), an MIC (M. kansasii SWK) of under 0.13 µg/mL and an MIC (M. tuberculosis 102; [1]) of 0.06 µg/mL (≈ 0.234 µM).

With `CCCCCCCCCCCOC(=O)c1cnc(Cl)cn1` [Example 25] the MIC (M. avium 101) was 16 µg/mL (≈ 51.1 µM), the MIC (M. kansasii SWK) was 0.06 µg/mL (≈ 0.192 µM) and the MIC (M. tuberculosis 102; [1]) was 0.25 µg/mL (≈ 0.799 µM).

`CCCCCOC(=O)c1cnc(Cl)cn1` [Example 26] gave an MIC (M. avium 101) of 32 µg/mL (≈ 140 µM), an MIC (M. kansasii SWK) of 0.03 µg/mL (≈ 0.131 µM) and an MIC (M. tuberculosis 102; [1]) of 0.06 µg/mL (≈ 0.262 µM).

For `CCCCCCCCCCOC(=O)c1cnc(F)cn1` [Example 27], the MIC (M. avium 101) was 32 µg/mL (≈ 113 µM), the MIC (M. kansasii SWK) was 1 µg/mL (≈ 3.54 µM) and the MIC (M. tuberculosis 102; [1]) was 2 µg/mL (≈ 7.08 µM).

In the case of `CCCCCCOC(=O)c1cnc(F)cn1` [Example 28], the MIC (M. avium 101) is reported as 64 µg/mL (≈ 283 µM) and the MIC (M. kansasii SWK) is reported as 8 µg/mL (≈ 35.4 µM).

Molecule `CCCCCCC(C)OC(=O)c1cnc(F)cn1` (stereo not drawn) [Example 29] has an MIC (M. avium 101) of 32 µg/mL (≈ 126 µM), an MIC (M. kansasii SWK) of 0.03 µg/mL (≈ 0.118 µM) and an MIC (M. tuberculosis 102; [1]) of 2 µg/mL (≈ 7.86 µM).

Work on `O=C(OCc1ccccc1)c1cnc(Cl)cn1` [Example 30] yielded an MIC (M. avium 101) of 8 µg/mL (≈ 32.2 µM), an MIC (M. kansasii SWK) of 1 µg/mL (≈ 4.02 µM) and an MIC (M. tuberculosis 102; [1]) of 1 µg/mL (≈ 4.02 µM).

`CCCCOC(=O)c1cnc(Cl)cn1` [Example 31] gave an MIC (M. avium 101) of 64 µg/mL (≈ 298 µM), an MIC (M. kansasii SWK) of under 1 µg/mL and an MIC (M. tuberculosis 102; [1]) of 0.25 µg/mL (≈ 1.16 µM).

For `C=CC(C)OC(=O)c1cnc(Cl)cn1` (stereo not drawn) [Example 32], the MIC (M. avium 101) was 64 µg/mL (≈ 301 µM), the MIC (M. kansasii SWK) was under 1 µg/mL and the MIC (M. tuberculosis 102; [1]) was 2 µg/mL (≈ 9.41 µM).
